Reference: PubChem BioAssay AID330 (DTP/NCI, 2004)
“And” between values parts separate entries of the source, which are not always exact repeats. Identical values can stand only once. Inconclusive results and toxic doses are left out. The calls were made as follows: active = survival T/C of 150% or more; inactive = T/C below 125% in these data.

Test system: P388 leukemia ip, CD2F1 mice, survival T/C
Experiment: NCI In Vivo Anticancer Drug Screen. Data for tumor model P388 Leukemia (intraperitoneal) in CD2F1 (CDF1) mice
Details: endpoint: median survival time, higher = longer survival
In short: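 Mice carrying the transplanted tumor received test compound or vehicle. Survival was recorded in each group, and the value is the treated-group measurement divided by that of the vehicle-treated control group.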

[1] = dose: 50.0 mg/kg/injection, schedule: Q01DX005 (ip), vehicle: Klucel (hydroxypropylcellulose) (HPC)
[2] = dose: 100.0 mg/kg/injection, schedule: Q01DX005 (ip), vehicle: Klucel (hydroxypropylcellulose) (HPC)
[3] = dose: 200.0 mg/kg/injection, schedule: Q01DX005 (ip), vehicle: Klucel (hydroxypropylcellulose) (HPC)
[4] = dose: 100.0 mg/kg/injection, schedule: Q04DX003 (ip), vehicle: Klucel (hydroxypropylcellulose) (HPC)
[5] = dose: 200.0 mg/kg/injection, schedule: Q04DX003 (ip), vehicle: Klucel (hydroxypropylcellulose) (HPC)
[6] = dose: 400.0 mg/kg/injection, schedule: Q04DX003 (ip), vehicle: Klucel (hydroxypropylcellulose) (HPC)
[7] = dose: 50.0 mg/kg/injection, schedule: Q01DX005 (ip), vehicle: saline with Tween-80
[8] = dose: 100.0 mg/kg/injection, schedule: Q01DX005 (ip), vehicle: saline with Tween-80
[9] = dose: 200.0 mg/kg/injection, schedule: Q01DX005 (ip), vehicle: saline with Tween-80
[10] = dose: 50.0 mg/kg/injection, schedule: Q01DX009 (ip), vehicle: saline
[11] = dose: 100.0 mg/kg/injection, schedule: Q01DX009 (ip), vehicle: saline
[12] = dose: 200.0 mg/kg/injection, schedule: Q01DX009 (ip), vehicle: saline
[13] = dose: 100.0 mg/kg/injection, schedule: Q04DX003 (ip), vehicle: saline with Tween-80
[14] = dose: 200.0 mg/kg/injection, schedule: Q04DX003 (ip), vehicle: saline with Tween-80
[15] = dose: 50.0 mg/kg/injection, schedule: Q01DX009 (ip), vehicle: saline with Tween-80

Measured: T/C

COc1ccc(C2CC(=O)N(c3nc(C)cc(C)n3)C(=O)C2)cc1
inactive: dose: 100.0 mg/kg/injection, schedule: Q04DX003 (ip), vehicle: saline 96 % of control | dose: 200.0 mg/kg/injection, schedule: Q04DX003 (ip), vehicle: saline 102 % of control | dose: 400.0 mg/kg/injection, schedule: Q04DX003 (ip), vehicle: saline 100 % of control

Cn1ccc(C#N)c(C#N)c1=O
inactive: dose: 25.0 mg/kg/injection, schedule: Q01DX005 (ip), vehicle: Klucel (hydroxypropylcellulose) (HPC) 97 % of control | [1] 99 % of control | [2] 106 % of control | [3] 97 % of control

CCC1=CC2CN(CCc3c([nH]c4ccccc34)C(C(=O)OC)(c3cc4c(cc3OC)N(C)C3C(O)(C(=O)OC)C(OC(C)=O)C5(CC)CCCN6CCC43C65)C2)C1 (stereo not drawn)
inactive: dose: 0.06 mg/kg/injection, schedule: Q01DX009 (ip), vehicle: water 95 % of control | dose: 0.13 mg/kg/injection, schedule: Q01DX009 (ip), vehicle: water 94 % of control | dose: 0.25 mg/kg/injection, schedule: Q01DX009 (ip), vehicle: water 94 % of control | dose: 0.5 mg/kg/injection, schedule: Q01DX009 (ip), vehicle: water 90 % of control | dose: 1.0 mg/kg/injection, schedule: Q01DX001 (ip), vehicle: water 100 % of control and 115 % of control | dose: 1.0 mg/kg/injection, schedule: Q01DX009 (ip), vehicle: water 90 % of control | dose: 2.0 mg/kg/injection, schedule: Q01DX001 (ip), vehicle: water 107 % of control and 100 % of control | dose: 2.0 mg/kg/injection, schedule: Q01DX009 (ip), vehicle: water 106 % of control and 110 % of control | dose: 4.0 mg/kg/injection, schedule: Q01DX001 (ip), vehicle: water 110 % of control and 108 % of control | dose: 4.0 mg/kg/injection, schedule: Q01DX009 (ip), vehicle: water 109 % of control and 111 % of control | dose: 8.0 mg/kg/injection, schedule: Q01DX001 (ip), vehicle: water 119 % of control and 109 % of control and 115 % of control | dose: 8.0 mg/kg/injection, schedule: Q01DX009 (ip), vehicle: water 122 % of control | dose: 16.0 mg/kg/injection, schedule: Q01DX001 (ip), vehicle: water 122 % of control and 112 % of control and 116 % of control | dose: 32.0 mg/kg/injection, schedule: Q01DX001 (ip), vehicle: water 122 % of control and 115 % of control and 119 % of control

O=C1C2C3C4C5C(C2C5(Br)C32OCCO2)C14Br (stereo not drawn)
inactive: [4] 106 % of control | [5] 107 % of control | [6] 113 % of control

CC(=O)/C(=C\c1ccc(O)cc1)C(=O)CCN(C)C
inactive: [7] 108 % of control | [8] 112 % of control | [9] 112 % of control

OCCN(CCO)CCCCCCN(CCO)CCO
inactive: dose: 25.0 mg/kg/injection, schedule: Q01DX009 (ip), vehicle: saline 98 % of control | [10] 104 % of control | [11] 107 % of control | [12] 113 % of control

COc1ccc2c(c1)C(=O)C1(CC2)OC1c1cccnc1 (stereo not drawn)
inactive: dose: 12.5 mg/kg/injection, schedule: Q01DX009 (ip), vehicle: other 110 % of control | dose: 25.0 mg/kg/injection, schedule: Q01DX009 (ip), vehicle: other 115 % of control | dose: 50.0 mg/kg/injection, schedule: Q01DX009 (ip), vehicle: other 100 % of control and 117 % of control | dose: 100.0 mg/kg/injection, schedule: Q01DX009 (ip), vehicle: other 115 % of control and 117 % of control | dose: 200.0 mg/kg/injection, schedule: Q01DX009 (ip), vehicle: other 94 % of control | dose: 400.0 mg/kg/injection, schedule: Q01DX009 (ip), vehicle: other 99 % of control

O=S1(=O)N=C(Sc2nc3ccccc3o2)c2ccccc21
inactive: dose: 100.0 mg/kg/injection, schedule: Q04DX002 (ip), vehicle: saline with Tween-80 102 % of control | dose: 200.0 mg/kg/injection, schedule: Q04DX002 (ip), vehicle: saline with Tween-80 107 % of control | dose: 400.0 mg/kg/injection, schedule: Q04DX002 (ip), vehicle: saline with Tween-80 115 % of control

CC(=O)O/C1=C\CCCCCCCCCC1
inactive: [7] 95 % of control | [8] 90 % of control | [9] 110 % of control

O=C1CC[C@@H]2N1CC2(O)c1ccccc1 (mixture of isomers)
inactive: [1] 96 % of control | [2] 93 % of control | [3] 93 % of control

O=[N+]([O-])c1cc2c(cc1Br)C1C(C3C2C2(Cl)C(Cl)=C(Cl)C3(Cl)C2(Cl)Cl)C2(Cl)C(Cl)=C(Cl)C1(Cl)C2(Cl)Cl (stereo not drawn)
inactive: [10] 107 % of control | [11] 105 % of control | [12] 108 % of control

CCCNCCNc1ccc(NCCNCCC)c2c1C(=O)c1ccccc1C2=O
inactive: dose: 4.0 mg/kg/injection, schedule: Q01DX009 (ip), vehicle: acid diluted with saline 104 % of control | dose: 8.0 mg/kg/injection, schedule: Q01DX009 (ip), vehicle: acid diluted with saline 112 % of control | dose: 12.5 mg/kg/injection, schedule: Q01DX009 (ip), vehicle: distilled water + Tween-80 120 % of control | dose: 16.0 mg/kg/injection, schedule: Q01DX009 (ip), vehicle: acid diluted with saline 120 % of control | dose: 25.0 mg/kg/injection, schedule: Q01DX009 (ip), vehicle: distilled water + Tween-80 118 % of control | dose: 32.0 mg/kg/injection, schedule: Q01DX009 (ip), vehicle: acid diluted with saline 112 % of control | dose: 100.0 mg/kg/injection, schedule: Q01DX009 (ip), vehicle: distilled water + Tween-80 124 % of control

CCCCOC(=O)c1ccccn1
inactive: dose: 50.0 mg/kg/injection, schedule: Q04DX003 (ip), vehicle: saline with Tween-80 95 % of control | [13] 100 % of control | [14] 95 % of control

CCOC(=O)c1cc(NC(C)=O)c(C)n1C
inactive: [13] 107 % of control | [14] 116 % of control | dose: 400.0 mg/kg/injection, schedule: Q04DX003 (ip), vehicle: saline with Tween-80 112 % of control

COc1ccc2c(c1)CCC(c1nc3cccc([N+](=O)[O-])c3[nH]c1=O)=C2O
inactive: dose: 7.5 mg/kg/injection, schedule: Q01DX005 (ip), vehicle: Klucel + Tween-80 91 % of control | dose: 15.0 mg/kg/injection, schedule: Q01DX005 (ip), vehicle: Klucel + Tween-80 94 % of control | dose: 30.0 mg/kg/injection, schedule: Q01DX005 (ip), vehicle: Klucel + Tween-80 92 % of control

Nc1cccc(SC(CC(=O)c2ccc(-c3ccccc3)cc2)c2ccco2)c1 (stereo not drawn)
inactive: dose: 50.0 mg/kg/injection, schedule: Q01DX009 (ip), vehicle: Klucel (hydroxypropylcellulose) (HPC) 97 % of control | dose: 100.0 mg/kg/injection, schedule: Q01DX009 (ip), vehicle: Klucel (hydroxypropylcellulose) (HPC) 101 % of control

CC(C)(C)C1(C#N)C(=O)N(c2ccc(N3C(=O)C(C#N)(C(C)(C)C)C34c3ccccc3-c3ccccc34)cc2)C12c1ccccc1-c1ccccc12 (stereo not drawn)
inactive: [4] 93 % of control | [5] 93 % of control | [6] 91 % of control

Cc1cccc(NC(=O)CCc2ccc(N3C(N)=NC(N)=NC3(C)C)cc2)c1
inactive: [15] 118 % of control | dose: 50.0 mg/kg/injection, schedule: Q04DX003 (ip), vehicle: saline sonified 118 % of control | dose: 100.0 mg/kg/injection, schedule: Q04DX003 (ip), vehicle: saline sonified 113 % of control | dose: 132.0 mg/kg/injection, schedule: Q01DX009 (ip), vehicle: saline with Tween-80 118 % of control | dose: 200.0 mg/kg/injection, schedule: Q04DX003 (ip), vehicle: saline sonified 118 % of control

NC(=O)c1ccc(-c2csc(=S)[nH]2)s1
inactive: [15] 100 % of control and 105 % of control | dose: 100.0 mg/kg/injection, schedule: Q01DX009 (ip), vehicle: saline with Tween-80 101 % of control and 108 % of control | dose: 200.0 mg/kg/injection, schedule: Q01DX009 (ip), vehicle: saline with Tween-80 96 % of control

CC(C)Sc1ncn[nH]1
inactive: dose: 50.0 mg/kg/injection, schedule: Q01DX005 (ip), vehicle: saline 99 % of control | dose: 100.0 mg/kg/injection, schedule: Q01DX005 (ip), vehicle: saline 100 % of control | dose: 200.0 mg/kg/injection, schedule: Q01DX005 (ip), vehicle: saline 102 % of control

C=CCN(CC=C)c1nc(N)c2cc(OC)c(OC)cc2n1
inactive: dose: 37.5 mg/kg/injection, schedule: Q01DX009 (ip), vehicle: suspension in saline 100 % of control | dose: 75.0 mg/kg/injection, schedule: Q01DX009 (ip), vehicle: suspension in saline 106 % of control
